Patent publication US20260022142A1, “MACROCYCLIC IMMUNOMODULATORS” (Bristol-Myers Squibb Company, priority 2022, published 2026)
pIC50: −log10 of the molar value. Bridge positions count the residues as written; N and C are the ends. Square brackets hold non-standard residues; d marks the D form. Peptide text beside a SMILES is read from it. * marks the point of attachment. Bip = N[C@@H](Cc1ccc(-c2ccccc2)cc1)C(=O)O; 4Pal = N[C@@H](Cc1ccncc1)C(=O)O; Carboxymethyl = O=C(O)C*; Orn = NCCC[C@H](N)C(=O)O; Pra = C#CC[C@H](N)C(=O)O; Aun = NCCCCCCCCCCC(=O)O; Dab = NCC[C@H](N)C(=O)O; Dap = NC[C@H](N)C(=O)O; AEEA = NCCOCCOCC(=O)O

These compounds were tested against T1, PD-1/PD-L1 interaction (PE-labeled human PD-L1-Ig binding to Jurkat cell line over-expressing human PD-1) (Homo sapiens, UniProt Q15116) (assay: Jurkat-PD-1 Cell Binding High-Content Screening Assay (CBA)). Settings: Jurkat cell line over-expressing human PD-1; PE-labeled PD-L1-Ig 20 nM final; read-out: Jurkat hPD1-PDL1 IC50.
T1 construct: expressed in transfected cells; host or cells: Jurkat
Type: cell-based
Method in brief: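 Read-out is high-content imaging of cell-bound phycoerythrin-tagged PD-L1-Ig on fixed, Hoechst-counterstained Jurkat cells that over-express human PD-1. Compound exposure lasts 2 h at 37° C before the labeled ligand (20 nM final) is added for a further hour.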

T1 sequence (Q15116 25-288): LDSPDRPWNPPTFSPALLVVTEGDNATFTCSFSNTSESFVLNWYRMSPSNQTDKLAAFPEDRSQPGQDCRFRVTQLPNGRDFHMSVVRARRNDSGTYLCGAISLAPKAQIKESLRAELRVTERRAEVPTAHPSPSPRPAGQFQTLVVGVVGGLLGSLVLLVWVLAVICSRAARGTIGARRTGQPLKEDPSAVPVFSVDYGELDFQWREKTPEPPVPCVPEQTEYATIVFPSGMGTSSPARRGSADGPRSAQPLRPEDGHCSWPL

In order of falling pIC50:
1. C#CC[C@H](NC(=O)COCCOCCNC(=O)[C@H](CCCN)NC(=O)[C@@H]1CSCC(=O)N[C@@H](Cc2ccncc2)C(=O)N[C@@H](Cc2ccc(OCC(=O)O)cc2)C(=O)N[C@@H](CC(=O)O)C(=O)N[C@@H](Cc2c[nH]c3ccccc23)C(=O)N[C@@H](C(C)C)C(=O)N[C@@H](Cc2ccc(-c3ccccc3)cc2)C(=O)N[C@@H]([C@@H](C)CC)C(=O)N[C@@H](CCCN)C(=O)N[C@H](CC(C)C)C(=O)N[C@@H](CCN)C(=O)N[C@@H](CC(C)C)C(=O)N[C@@H](C(C)C)C(=O)N[C@@H]([C@@H](C)O)C(=O)N1)C(=O)N[C@@H](Cc1c[nH]cn1)C(=O)NCCCCCCCCCCC(=O)O [Compound 1204] ({CH2CO}-[4Pal]Y(Carboxymethyl)DWV[Bip]I[Orn][dL][Dab]LVTC[Orn][AEEA][Pra]H[Aun]-OH; thioether N-14)  8.04
2. C#CC[C@H](NC(=O)COCCOCCNC(=O)[C@@H]1CSCC(=O)N[C@@H](Cc2ccncc2)C(=O)N[C@@H](Cc2ccc(OCC(=O)O)cc2)C(=O)N[C@@H](CC(=O)O)C(=O)N[C@@H](Cc2c[nH]c3ccccc23)C(=O)N[C@@H](C(C)C)C(=O)N[C@@H](Cc2ccc(-c3ccccc3)cc2)C(=O)N[C@@H]([C@@H](C)CC)C(=O)N[C@@H](CCCN)C(=O)N[C@H](CC(C)C)C(=O)N[C@@H](CCN)C(=O)N[C@@H](CC(C)C)C(=O)N[C@@H](C(C)C)C(=O)N[C@@H]([C@@H](C)O)C(=O)N1)C(=O)N[C@@H](CN)C(=O)NCCCCCCCCCCC(=O)O [Compound 1211] ({CH2CO}-[4Pal]Y(Carboxymethyl)DWV[Bip]I[Orn][dL][Dab]LVTC[AEEA][Pra][Dap][Aun]-OH; thioether N-14)  7.81
3. C#CC[C@H](NC(=O)COCCOCCNC(=O)[C@H](CN)NC(=O)[C@@H]1CSCC(=O)N[C@@H](Cc2ccncc2)C(=O)N[C@@H](Cc2ccc(OCC(=O)O)cc2)C(=O)N[C@@H](CC(=O)O)C(=O)N[C@@H](Cc2c[nH]c3ccccc23)C(=O)N[C@@H](C(C)C)C(=O)N[C@@H](Cc2ccc(-c3ccccc3)cc2)C(=O)N[C@@H]([C@@H](C)CC)C(=O)N[C@@H](CCCN)C(=O)N[C@H](CC(C)C)C(=O)N[C@@H](CCN)C(=O)N[C@@H](CC(C)C)C(=O)N[C@@H](C(C)C)C(=O)N[C@@H]([C@@H](C)O)C(=O)N1)C(=O)NCCCCCCCCCCC(=O)O [Compound 1205] ({CH2CO}-[4Pal]Y(Carboxymethyl)DWV[Bip]I[Orn][dL][Dab]LVTC[Dap][AEEA][Pra][Aun]-OH; thioether N-14)  7.70
4. C#CC[C@H](NC(=O)COCCOCCNC(=O)[C@H](CCN)NC(=O)[C@@H]1CSCC(=O)N[C@@H](Cc2ccncc2)C(=O)N[C@@H](Cc2ccc(OCC(=O)O)cc2)C(=O)N[C@@H](CC(=O)O)C(=O)N[C@@H](Cc2c[nH]c3ccccc23)C(=O)N[C@@H](C(C)C)C(=O)N[C@@H](Cc2ccc(-c3ccccc3)cc2)C(=O)N[C@@H]([C@@H](C)CC)C(=O)N[C@@H](CCCN)C(=O)N[C@H](CC(C)C)C(=O)N[C@@H](CCN)C(=O)N[C@@H](CC(C)C)C(=O)N[C@@H](C(C)C)C(=O)N[C@@H]([C@@H](C)O)C(=O)N1)C(=O)NCCCCCCCCCCC(=O)O [Compound 1206] ({CH2CO}-[4Pal]Y(Carboxymethyl)DWV[Bip]I[Orn][dL][Dab]LVTC[Dab][AEEA][Pra][Aun]-OH; thioether N-14)  7.70
5. C#CC[C@H](NC(=O)COCCOCCNC(=O)[C@H](Cc1cnc[nH]1)NC(=O)[C@@H]1CSCC(=O)N[C@@H](Cc2ccncc2)C(=O)N[C@@H](Cc2ccc(OCC(=O)O)cc2)C(=O)N[C@@H](CC(=O)O)C(=O)N[C@@H](Cc2c[nH]c3ccccc23)C(=O)N[C@@H](C(C)C)C(=O)N[C@@H](Cc2ccc(-c3ccccc3)cc2)C(=O)N[C@@H]([C@@H](C)CC)C(=O)N[C@@H](CCCN)C(=O)N[C@H](CC(C)C)C(=O)N[C@@H](CCN)C(=O)N[C@@H](CC(C)C)C(=O)N[C@@H](C(C)C)C(=O)N[C@@H]([C@@H](C)O)C(=O)N1)C(=O)NCCCCCCCCCCC(=O)O [Compound 1210] ({CH2CO}-[4Pal]Y(Carboxymethyl)DWV[Bip]I[Orn][dL][Dab]LVTCH[AEEA][Pra][Aun]-OH; thioether N-14)  7.65
6. C#CC[C@H](NC(=O)COCCOCCNC(=O)[C@H](CCCCN)NC(=O)[C@@H]1CSCC(=O)N[C@@H](Cc2ccncc2)C(=O)N[C@@H](Cc2ccc(OCC(=O)O)cc2)C(=O)N[C@@H](CC(=O)O)C(=O)N[C@@H](Cc2c[nH]c3ccccc23)C(=O)N[C@@H](C(C)C)C(=O)N[C@@H](Cc2ccc(-c3ccccc3)cc2)C(=O)N[C@@H]([C@@H](C)CC)C(=O)N[C@@H](CCCN)C(=O)N[C@H](CC(C)C)C(=O)N[C@@H](CCN)C(=O)N[C@@H](CC(C)C)C(=O)N[C@@H](C(C)C)C(=O)N[C@@H]([C@@H](C)O)C(=O)N1)C(=O)NCCCCCCCCCCC(=O)O [Compound 1208] ({CH2CO}-[4Pal]Y(Carboxymethyl)DWV[Bip]I[Orn][dL][Dab]LVTCK[AEEA][Pra][Aun]-OH; thioether N-14)  7.57
7. C#CC[C@H](NC(=O)COCCOCCNC(=O)[C@H](CCCN)NC(=O)[C@@H]1CSCC(=O)N[C@@H](Cc2ccncc2)C(=O)N[C@@H](Cc2ccc(OCC(=O)O)cc2)C(=O)N[C@@H](CC(=O)O)C(=O)N[C@@H](Cc2c[nH]c3ccccc23)C(=O)N[C@@H](C(C)C)C(=O)N[C@@H](Cc2ccc(-c3ccccc3)cc2)C(=O)N[C@@H]([C@@H](C)CC)C(=O)N[C@@H](CCCN)C(=O)N[C@H](CC(C)C)C(=O)N[C@@H](CCN)C(=O)N[C@@H](CC(C)C)C(=O)N[C@@H](C(C)C)C(=O)N[C@@H]([C@@H](C)O)C(=O)N1)C(=O)NCCCCCCCCCCC(=O)O [Compound 1207] ({CH2CO}-[4Pal]Y(Carboxymethyl)DWV[Bip]I[Orn][dL][Dab]LVTC[Orn][AEEA][Pra][Aun]-OH; thioether N-14)  7.55
8. C#CC[C@H](NC(=O)COCCOCCNC(=O)[C@H](CCCNC(=N)N)NC(=O)[C@@H]1CSCC(=O)N[C@@H](Cc2ccncc2)C(=O)N[C@@H](Cc2ccc(OCC(=O)O)cc2)C(=O)N[C@@H](CC(=O)O)C(=O)N[C@@H](Cc2c[nH]c3ccccc23)C(=O)N[C@@H](C(C)C)C(=O)N[C@@H](Cc2ccc(-c3ccccc3)cc2)C(=O)N[C@@H]([C@@H](C)CC)C(=O)N[C@@H](CCCN)C(=O)N[C@H](CC(C)C)C(=O)N[C@@H](CCN)C(=O)N[C@@H](CC(C)C)C(=O)N[C@@H](C(C)C)C(=O)N[C@@H]([C@@H](C)O)C(=O)N1)C(=O)NCCCCCCCCCCC(=O)O [Compound 1209] ({CH2CO}-[4Pal]Y(Carboxymethyl)DWV[Bip]I[Orn][dL][Dab]LVTCR[AEEA][Pra][Aun]-OH; thioether N-14)  7.45
9. C#CC[C@H](NC(=O)COCCOCCNC(=O)[C@H](CCCN)NC(=O)[C@@H]1CSCC(=O)N[C@@H](Cc2ccncc2)C(=O)N[C@@H](Cc2ccc(OCC(=O)O)cc2)C(=O)N[C@@H](CC(=O)O)C(=O)N[C@@H](Cc2c[nH]c3ccccc23)C(=O)N[C@@H](C(C)C)C(=O)N[C@@H](Cc2ccc(-c3ccccc3)cc2)C(=O)N[C@@H]([C@@H](C)CC)C(=O)N[C@@H](CCCN)C(=O)N[C@H](CC(C)C)C(=O)N[C@@H](CCN)C(=O)N[C@@H](CC(C)C)C(=O)N[C@@H](C(C)C)C(=O)N[C@@H]([C@@H](C)O)C(=O)N1)C(=O)N[C@@H](CCCNC(=N)N)C(=O)NCCCCCCCCCCC(=O)O [Compound 1203] ({CH2CO}-[4Pal]Y(Carboxymethyl)DWV[Bip]I[Orn][dL][Dab]LVTC[Orn][AEEA][Pra]R[Aun]-OH; thioether N-14)  7.43
